Test system: liver cells (AML-12 cells)
Test: DNA damage (p-H2AX protein levels) in liver cells
Assay type: cell-based
Conditions: AML-12 liver cells, 6 hours; p=0.068
Excerpt: To that end, the inventors used endothelial cells (EOMA cells) and liver cells (AML-12 cells) in vitro and quantified various markers in response to exposure of the cells to environmental challenge in the presence and absence of DDA at low concentrations. Unless indicated otherwise, the DDA concentration in the in vitro experiments was 5 mcg per microliter. More specifically, the inventors measured p-H2AX protein levels as a marker for DNA damage, PGC-1α protein levels as a marker for mitochondrial biogenesis, NAMPT enzyme levels as a marker for potential for NAD+ production, and total antioxidant capacity as a marker of cellular health. In addition, the inventors also measured global SIRT activity as a gauge of activity for all SIRT enzymes, and in particular SIRT1 enzyme levels as markers for autophagy and various beneficial processes associated with a caloric restricted diet, and SIRT3 levels as markers for mitochondrial function and longevity.
Finally, the inventors also investigated whether or not DDDA could have a protective effect against peroxide induced DNA damage, and exemplary results are shown in FIG. 11. […] N=5-6 plates per treatment.

SMILES: O=C(O)CCCCCCCCCCC(=O)O [DDDA, dodecanedioic acid]
- peroxide induced DNA damage: trend towards decreased DNA damage
